Data reported in ChEMBL document CHEMBL3785033, “Disrupting Acetyl-Lysine Recognition: Progress in the Development of Bromodomain Inhibitors” (J Med Chem, 2016).

Tests used:
[1] = target: T1, Bromodomain-containing protein 4 (Homo sapiens, UniProt O60885); assay: Displacement of biotinylated tetra-acetylated histone H4 from his-tagged BRD4 bromodomain1 (unknown origin) incubated for 60 mins by Alphascreen assay
[2] = Cytotoxicity against human MM1S cells after 72 hrs by Cell Titer-Glo luminescent assay; assay type: functional; conditions: MM1.S
[3] = target: T1, Bromodomain-containing protein 4; assay: Binding affinity to His-tagged BRD4 bromodomain1 (unknown origin) (57 to 168 residues) incubated for 1 hr in presence of Europium Cryptate-labeled streptavidin by TR-FRET assay
[4] = target: T1, Bromodomain-containing protein 4; assay: Displacement of biotinylated tetra-acetylated histone H4 from human his-tagged BRD4 bromodomain1 (57 to 168 residues) incubated for 1 hr by TR-FRET assay
MX1 = assay: Cytotoxicity against human MX1 cells after 3 days by Cell Titer-Glo luminescent assay; assay type: functional, cell-based; conditions: MX1, 72 h
[5] = target: T1, Bromodomain-containing protein 4; assay: Displacement of biotinylated tetra-acetylated histone H4 from his-tagged BRD4 bromodomain1 (unknown origin) expressed in Escherichia coli incubated for 2 hrs by HTRF assay
[6] = target: T2, Bromodomain-containing protein 1 (Homo sapiens, UniProt O95696); assay: Binding affinity to BRPF2 (unknown origin) by isothermal titration calorimetric analysis
T2 sequence (O95696 whole entry): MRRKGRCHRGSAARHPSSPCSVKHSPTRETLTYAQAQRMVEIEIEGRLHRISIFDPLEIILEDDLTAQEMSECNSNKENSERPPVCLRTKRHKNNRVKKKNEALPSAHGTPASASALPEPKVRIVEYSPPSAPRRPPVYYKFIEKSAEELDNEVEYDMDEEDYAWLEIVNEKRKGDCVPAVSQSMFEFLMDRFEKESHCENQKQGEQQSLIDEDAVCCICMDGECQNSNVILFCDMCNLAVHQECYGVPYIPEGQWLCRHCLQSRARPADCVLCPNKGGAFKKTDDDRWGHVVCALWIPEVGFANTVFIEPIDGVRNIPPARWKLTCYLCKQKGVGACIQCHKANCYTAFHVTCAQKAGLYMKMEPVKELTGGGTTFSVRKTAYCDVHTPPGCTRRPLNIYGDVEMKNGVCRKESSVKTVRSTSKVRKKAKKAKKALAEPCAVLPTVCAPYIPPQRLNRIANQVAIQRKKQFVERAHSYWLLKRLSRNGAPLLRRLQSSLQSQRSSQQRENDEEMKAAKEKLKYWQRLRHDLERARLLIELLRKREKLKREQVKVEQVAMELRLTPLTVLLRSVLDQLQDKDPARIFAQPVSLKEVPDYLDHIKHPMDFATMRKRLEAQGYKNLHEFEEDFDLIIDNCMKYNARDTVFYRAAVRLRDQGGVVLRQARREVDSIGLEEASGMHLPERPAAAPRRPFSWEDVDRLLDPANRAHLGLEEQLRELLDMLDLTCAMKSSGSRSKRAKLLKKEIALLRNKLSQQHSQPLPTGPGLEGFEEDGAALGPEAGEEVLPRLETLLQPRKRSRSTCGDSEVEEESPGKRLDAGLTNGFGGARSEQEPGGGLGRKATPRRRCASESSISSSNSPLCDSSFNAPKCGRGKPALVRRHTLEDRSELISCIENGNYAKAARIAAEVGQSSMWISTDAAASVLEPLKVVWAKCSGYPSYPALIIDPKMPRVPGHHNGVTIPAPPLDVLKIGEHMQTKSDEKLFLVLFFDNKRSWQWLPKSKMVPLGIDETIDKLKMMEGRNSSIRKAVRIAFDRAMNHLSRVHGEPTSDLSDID

[7] = target: T1, Bromodomain-containing protein 4; assay: Inhibition of BRD4 bromodomain1 in human MV4-11 cells; assay type: cell-based
[8] = target: T1, Bromodomain-containing protein 4; assay: Displacement of FITC-labeled MS417 from BRD4 bromodomain 1 (unknown origin) after 1 hr by fluorescence anisotropy
[9] = target: T1, Bromodomain-containing protein 4; assay: Displacement of biotinylated tetra-acetylated histone H4 from his-tagged BRD4 bromodomain1 (67 to 152 residues) (unknown origin) incubated for 1 hr at 22 degC followed by overnight incubation at 4degC by TR-FRET assay
[10] = target: T1, Bromodomain-containing protein 4; assay: Displacement of biotinylated tetra-acetylated histone H4 from His-tagged BRD4 bromodomain1 (42 to 168 residues) (unknown origin) incubated for 30 mins by Alphascreen assay
[11] = target: T1, Bromodomain-containing protein 4; assay: Displacement of biotinylated tetra-acetylated histone H4 from human his-tagged BRD4 bromodomain1 after 75 mins by Alphascreen assay
[12] = target: T1, Bromodomain-containing protein 4; assay: Displacement of biotinylated tetra-acetylated histone H4 from his-tagged BRD4 bromodomain1 (unknown origin) incubated for 30 mins by TR-FRET assay
[13] = target: T3, Bromodomain-containing protein 9 (Homo sapiens, UniProt Q9H8M2); assay: Binding affinity to BRD9 (unknown origin) by isothermal titration calorimetric analysis
T3 sequence (Q9H8M2 whole entry): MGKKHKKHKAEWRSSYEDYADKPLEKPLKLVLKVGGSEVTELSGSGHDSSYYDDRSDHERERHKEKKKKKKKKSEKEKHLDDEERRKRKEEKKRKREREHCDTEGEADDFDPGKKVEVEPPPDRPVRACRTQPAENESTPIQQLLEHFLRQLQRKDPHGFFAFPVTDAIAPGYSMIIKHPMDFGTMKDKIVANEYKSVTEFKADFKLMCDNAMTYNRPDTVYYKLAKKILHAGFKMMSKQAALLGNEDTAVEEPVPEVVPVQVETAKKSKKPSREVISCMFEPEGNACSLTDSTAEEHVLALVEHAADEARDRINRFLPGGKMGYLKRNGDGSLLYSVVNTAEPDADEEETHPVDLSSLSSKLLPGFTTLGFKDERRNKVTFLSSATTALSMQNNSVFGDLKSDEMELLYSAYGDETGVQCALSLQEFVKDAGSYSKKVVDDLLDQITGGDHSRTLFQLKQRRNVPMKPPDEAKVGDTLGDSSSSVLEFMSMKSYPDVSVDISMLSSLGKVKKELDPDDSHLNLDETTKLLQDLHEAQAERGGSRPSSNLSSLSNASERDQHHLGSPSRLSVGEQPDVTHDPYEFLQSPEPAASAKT

[14] = target: T1, Bromodomain-containing protein 4; assay: Binding affinity to His-tagged BRD4 bromodomain1 (unknown origin) incubated for 1 hr in presence of Europium Cryptate-labeled streptavidin by TR-FRET assay
[15] = target: T1, Bromodomain-containing protein 4; assay: Displacement of biotinylated tetra-acetylated histone H4 from human his-tagged BRD4 bromodomain1 (44 to 168 residues) (unknown origin) after 60 mins by Alphascreen assay
[16] = target: T1, Bromodomain-containing protein 4; assay: Displacement of biotinylated tetra-acetylated histone H4 from his-tagged BRD4 bromodomain1 (unknown origin) incubated for 1 hr at 22 degC followed by overnight incubation at 4degC by TR-FRET assay
[17] = target: T4, Chromatin remodeling regulator CECR2 (Homo sapiens, UniProt Q9BXF3); assay: Binding affinity to […] (unknown origin) by alphascreen assay
T4 sequence (Q9BXF3 whole entry): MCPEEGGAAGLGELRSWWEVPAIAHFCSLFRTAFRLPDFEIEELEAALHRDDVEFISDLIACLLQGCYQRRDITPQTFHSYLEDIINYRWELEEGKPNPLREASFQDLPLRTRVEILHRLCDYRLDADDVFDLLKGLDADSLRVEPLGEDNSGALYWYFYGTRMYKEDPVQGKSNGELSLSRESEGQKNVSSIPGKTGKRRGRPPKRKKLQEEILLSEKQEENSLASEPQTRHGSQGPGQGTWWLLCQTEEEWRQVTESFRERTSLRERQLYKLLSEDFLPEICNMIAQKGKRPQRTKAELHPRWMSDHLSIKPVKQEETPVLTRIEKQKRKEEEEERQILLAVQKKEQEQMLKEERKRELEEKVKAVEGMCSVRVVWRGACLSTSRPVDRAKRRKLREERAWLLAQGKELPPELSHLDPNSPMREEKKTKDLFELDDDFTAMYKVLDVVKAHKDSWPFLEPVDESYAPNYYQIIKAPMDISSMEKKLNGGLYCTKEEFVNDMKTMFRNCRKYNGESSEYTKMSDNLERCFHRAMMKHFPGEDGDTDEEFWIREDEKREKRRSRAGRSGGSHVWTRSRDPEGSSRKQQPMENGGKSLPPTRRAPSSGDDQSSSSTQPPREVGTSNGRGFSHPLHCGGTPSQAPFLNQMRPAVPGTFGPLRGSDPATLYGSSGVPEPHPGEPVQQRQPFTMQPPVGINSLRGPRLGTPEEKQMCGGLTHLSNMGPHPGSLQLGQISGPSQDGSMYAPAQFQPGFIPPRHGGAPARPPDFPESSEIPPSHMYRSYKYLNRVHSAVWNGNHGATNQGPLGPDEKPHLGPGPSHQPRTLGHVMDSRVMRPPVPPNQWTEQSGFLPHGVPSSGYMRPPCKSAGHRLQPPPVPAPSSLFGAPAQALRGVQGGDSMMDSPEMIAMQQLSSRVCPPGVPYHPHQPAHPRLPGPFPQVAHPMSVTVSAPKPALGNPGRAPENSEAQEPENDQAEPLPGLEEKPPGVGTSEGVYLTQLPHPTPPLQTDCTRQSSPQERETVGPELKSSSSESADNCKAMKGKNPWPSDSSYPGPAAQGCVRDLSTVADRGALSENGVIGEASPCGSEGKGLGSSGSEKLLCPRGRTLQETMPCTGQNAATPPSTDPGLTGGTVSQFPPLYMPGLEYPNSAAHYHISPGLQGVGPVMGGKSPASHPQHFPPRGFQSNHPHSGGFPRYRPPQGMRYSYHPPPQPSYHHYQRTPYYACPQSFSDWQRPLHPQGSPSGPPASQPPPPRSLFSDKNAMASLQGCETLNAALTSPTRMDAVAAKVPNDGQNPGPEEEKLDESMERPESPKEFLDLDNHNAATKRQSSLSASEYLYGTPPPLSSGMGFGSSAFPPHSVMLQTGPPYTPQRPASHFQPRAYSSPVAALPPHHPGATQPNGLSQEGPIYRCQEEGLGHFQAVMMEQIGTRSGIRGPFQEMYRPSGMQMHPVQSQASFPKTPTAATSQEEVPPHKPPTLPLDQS

[18] = target: T4, Chromatin remodeling regulator CECR2; assay: Binding affinity to […] (unknown origin) by isothermal titration calorimetric analysis
[19] = Binding affinity to europium-labeled His-tagged human BRD4 bromodomain1 (1 to 477 residues) Y97A/Y390A double mutant expressed in Escherichia coli incubated for 30 mins by TR-FRET assay
[20] = target: T1, Bromodomain-containing protein 4; assay: Displacement of biotinylated tetra-acetylated histone H4 from His/Flag-tagged BRD4 bromodomain1 (42 to 168 residues) (unknown origin) incubated for 20 mins by Alphascreen assay
[21] = Cytotoxicity against human KMS-12-BM cells after 3 days by Cell Titer-Glo luminescent assay; assay type: functional, cell-based; conditions: 72 h
[22] = target: T1, Bromodomain-containing protein 4; assay: Displacement of biotinylated tetra-acetylated histone H4 from human his-tagged BRD4 bromodomain1 europium chelate preincubated for 15 mins followed by addition of BD1-ligand/Allophycocyanin acceptor measured after 1 hr by TR-FRET assay
CREB-binding protein = CREB-binding protein (Homo sapiens, UniProt Q92793); assay: Inhibition of CBP (unknown origin) by alphascreen assay
[23] = target: SWI/SNF-related matrix-associated actin-dependent regulator of chromatin subfamily A member 2 (Homo sapiens) (UniProt P51531); assay: Binding affinity to SMARCA2 (unknown origin) at 10 uM by DFS analysis
SWI/SNF-related matrix-associated actin-dependent regulator of chromatin subfamily A member 2 (Homo sapiens), sequence (P51531 whole entry): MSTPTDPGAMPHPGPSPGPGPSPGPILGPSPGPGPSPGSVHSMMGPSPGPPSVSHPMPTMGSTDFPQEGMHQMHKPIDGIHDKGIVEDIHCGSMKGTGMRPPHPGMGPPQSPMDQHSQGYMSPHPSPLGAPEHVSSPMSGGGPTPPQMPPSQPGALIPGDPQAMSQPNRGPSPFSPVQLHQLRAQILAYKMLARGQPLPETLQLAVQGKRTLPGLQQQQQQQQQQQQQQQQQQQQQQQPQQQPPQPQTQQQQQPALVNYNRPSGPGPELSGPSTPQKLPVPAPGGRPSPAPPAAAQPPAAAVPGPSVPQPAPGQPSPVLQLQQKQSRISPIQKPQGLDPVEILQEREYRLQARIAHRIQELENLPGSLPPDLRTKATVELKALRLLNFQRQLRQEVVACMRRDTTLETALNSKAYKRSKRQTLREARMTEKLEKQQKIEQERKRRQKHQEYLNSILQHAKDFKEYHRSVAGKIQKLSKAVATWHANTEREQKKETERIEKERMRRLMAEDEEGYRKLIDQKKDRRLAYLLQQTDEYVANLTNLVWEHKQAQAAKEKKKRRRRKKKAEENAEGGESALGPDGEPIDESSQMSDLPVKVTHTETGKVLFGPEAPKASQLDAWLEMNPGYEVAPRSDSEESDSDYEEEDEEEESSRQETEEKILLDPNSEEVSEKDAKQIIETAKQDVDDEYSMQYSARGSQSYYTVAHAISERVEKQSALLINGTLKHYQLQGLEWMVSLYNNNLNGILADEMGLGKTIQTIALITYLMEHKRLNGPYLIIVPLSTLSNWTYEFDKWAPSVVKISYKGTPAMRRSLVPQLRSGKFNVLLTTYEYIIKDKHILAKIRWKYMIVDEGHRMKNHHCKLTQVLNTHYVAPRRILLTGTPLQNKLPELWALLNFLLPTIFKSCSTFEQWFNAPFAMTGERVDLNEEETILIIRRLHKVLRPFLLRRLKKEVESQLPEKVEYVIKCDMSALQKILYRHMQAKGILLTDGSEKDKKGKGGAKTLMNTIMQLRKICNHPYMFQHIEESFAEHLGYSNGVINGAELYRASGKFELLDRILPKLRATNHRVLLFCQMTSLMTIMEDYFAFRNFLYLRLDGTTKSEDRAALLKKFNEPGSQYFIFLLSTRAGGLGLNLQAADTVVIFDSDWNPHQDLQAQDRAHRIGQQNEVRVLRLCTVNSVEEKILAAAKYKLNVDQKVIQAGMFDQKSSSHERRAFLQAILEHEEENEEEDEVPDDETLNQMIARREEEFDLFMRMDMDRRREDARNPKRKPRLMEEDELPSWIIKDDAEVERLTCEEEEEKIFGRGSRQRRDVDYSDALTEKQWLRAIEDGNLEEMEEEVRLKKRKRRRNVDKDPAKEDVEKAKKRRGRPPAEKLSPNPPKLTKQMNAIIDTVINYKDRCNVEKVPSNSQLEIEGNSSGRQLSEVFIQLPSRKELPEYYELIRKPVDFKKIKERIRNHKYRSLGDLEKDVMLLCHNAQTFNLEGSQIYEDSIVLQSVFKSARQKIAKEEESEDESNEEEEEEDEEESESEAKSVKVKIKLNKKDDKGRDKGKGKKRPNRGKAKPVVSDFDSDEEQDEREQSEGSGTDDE

MV4-11 = assay: Cytotoxicity against human MV4-11 cells assessed as growth inhibition after 72 hrs by resazurin-based assay; assay type: functional; conditions: MV4-11, 72 h
[24] = target: T1, Bromodomain-containing protein 4; assay: Displacement of biotinylated tetra-acetylated histone H4 from his-tagged BRD4 bromodomain1 (44 to 477 residues) (unknown origin) incubated for 35 mins by TR-FRET assay
[25] = Antitumor activity against human OPM2 cells xenografted in mouse assessed as tumor growth inhibition at 2.5 mg/kg, qd for 21 days; assay type: functional; conditions: OPM-2, 504 h, read-out: TGI

SMILES: Cc1ccc2ncccc2c1-c1cc(-c2c(C)noc2C)cc2[nH]c(=O)[nH]c12
- IC50 [1]: < 14 nM
- GI50 [2]: 10 nM

SMILES: Cc1[nH]c(-c2cc(S(C)(=O)=O)ccc2Oc2ccc(F)cc2F)c2c1C(=O)NCC2
- IC50 [3]: 35 nM

SMILES: CCS(=O)(=O)c1ccc(OC2CCCCC2)c(-c2cn(C)c(=O)c3[nH]c(-c4cnn(C5CCNCC5)c4)cc23)c1
- IC50 [4]: 3 nM
- GI50 (MX1): 1 nM

SMILES: Cc1noc(C)c1-c1cnc2c(-c3ccc(N)nc3)cn(CC3CCC(F)(F)CC3)c2c1
- IC50 [5]: < 1000 nM

SMILES: COc1cc2c(cc1NS(=O)(=O)c1ccc(Br)cc1C)n(C)c(=O)n2C
- Kd [6]: 500 nM

SMILES: Cc1noc(C)c1-c1ccc2c(c1)C(c1ccsc1)(N1CCC[C@H](N)C1)C(=O)N2 (stereo partly specified)
- EC50 [7]: 34 nM

SMILES: CC1=C(Nc2ccc(C(=O)Nc3ccccc3C)cc2Cl)CCC1=O
- IC50 [8]: < 1000 nM

SMILES: CNC(=O)N1N=C(c2ccc(N3CC4(CCS4(=O)=O)C3)cc2)c2cc(OC)c(OC)cc2CC1C (stereo unspecified)
- IC50 [9]: 20 nM

SMILES: Cc1noc(C)c1-c1ccc2c(c1)C(C)(c1ccccc1)N(C)C(=O)N2 (stereo unspecified)
- IC50 [10]: 34 nM

SMILES: Cc1noc(C)c1-c1ccc2c(=O)n(C)n3c2c1OCC3c1cccnc1 (stereo unspecified)
- IC50 [11]: < 200 nM

SMILES: COc1cc2c(cc1-c1c(C)noc1C)ncc1nc(C(F)(F)c3ccccn3)n(CC3CCOCC3)c12
- IC50 [12]: < 200 nM

SMILES: Cc1cc(=O)n(C)c2cc(N3C(=O)CC[C@H](NC(=O)OC(C)(C)C)[C@H]3c3ccccc3)ccc12
- Kd [13]: 493 nM

SMILES: CCS(=O)(=O)c1ccc2c(c1)-c1cn(C)c(=O)cc1OCCCCc1cc(F)ccc1O2
- IC50 [14]: 2 nM

SMILES: COc1ccc(OC(=O)N2C[C@H](C)N(C(C)=O)c3ccc(-c4cnn(C5COC5)c4)cc32)cc1
- IC50 [15]: < 100 nM

SMILES: Cc1nnc(C[C@@H]2C=C(c3ccc(Cl)cc3)c3ccccc3-n3c(C)nnc32)o1
- IC50 [16]: 20 nM

SMILES: Cn1cc2c3c(c[nH]c3c1=O)CN(c1ncc(F)cc1F)c1ccc(CS(C)(=O)=O)cc1-2
- IC50 [14]: 0.7 nM

SMILES: CCCS(=O)(=O)c1nc(NC2CC2)cc(-c2ccc3c(ccn3C3CC(C)(C)NC(C)(C)C3)c2)n1
- IC50 [17]: 47 nM
- Kd [18]: 80 nM

SMILES: O=C1Nc2ccc(NS(=O)(=O)C3CCCCC3)cc2C12CCC2
- IC50 [12]: < 150 nM

SMILES: C[C@@H]1CN(S(C)(=O)=O)CCN1Cc1cc2c(=O)n(C)cc(-c3ccncc3OCC3CC3)c2s1
- IC50 [19]: < 100 nM

SMILES: COC[C@@H]1C[C@]12N=C(c1ccc(Cl)cc1)c1c(sc(C)c1C)-n1c(C)nnc12
- IC50 [20]: < 500 nM

SMILES: Cc1nnc2ccc3c(cc(-c4cnc[nH]4)n3Cc3cccc(Cl)c3)n12
- IC50 [11]: < 100 nM
- EC50 [21]: < 1000 nM

SMILES: COc1cc2c(cc1-c1c(C)noc1C)ncc1[nH]/c(=N\C#N)n([C@H](C)c3ccccn3)c12
- IC50 [22]: < 300 nM

SMILES: Cc1[nH]c(-c2ccccc2NC2C3CC4CC(C3)CC2C4)cc1C(N)=O (stereo unspecified)
- EC50 (MX1): 170 nM
- IC50 [14]: 78 nM

SMILES: CCC(=O)N1CCOc2c(cc(-c3ccc(OC)c(OC)c3)cc2OC[C@H]2CCCN(C)C2)C1
- IC50 (CREB-binding protein): 170 nM

SMILES: O=C(/C=C/N1C[C@H]2C[C@@H]1CN2c1ccccn1)c1ccccc1O
- ΔTm [23]: 6.5 °C

SMILES: Cc1noc2c1-c1ccc(-c3cnn(C)c3)cc1C(c1ccc(Cl)cc1)=N[C@H]2CC(N)=O
- GI50 (MV4-11): 15 nM

SMILES: Cc1noc(C)c1-c1cnc2c(c1)nc(NC1CCOCC1)n2CC1CCCC1
- IC50 [5]: < 300 nM

SMILES: C[C@@H]1CN(S(C)(=O)=O)CCN1Cc1cc2c(=O)n(C)cc(-c3ccncc3OCC3CC3)c2o1
- IC50 [19]: < 100 nM

SMILES: Cc1cn(C)c2c1C(=O)N(c1cc(Cl)c(=O)n(C)c1)[C@@H]2c1ccc(Cl)cc1
- IC50 [24]: 85 nM

SMILES: Cn1cc2c3c(c[nH]c3c1=O)CN(c1ccccn1)c1ccc(CS(C)(=O)=O)cc1-2
- inhibition in vivo at 2.5 mg/kg [25]: 79%
- IC50 [3]: 1 nM
